According to patent publication US11957696B2 (Propella Therapeutics, Inc., priority 2021, dated 2024):
Like-named read-outs stand apart in the source and are kept apart here.

Legend:
[1] = Abiraterone plasma exposure from abiraterone decanoate formulations with and without benzyl benzoate; type: in vivo; details: corn oil 70%, benzyl alcohol 10%, benzyl benzoate 20% compared with corn oil 90%, same dose, monkeys
Description: In some embodiments, the abiraterone prodrug formulation can comprise a combination of benzyl alcohol and benzyl benzoate as cosolvents. In some embodiments, the benzyl alcohol can be present in an amount of about 0-20% (e.g., 0-15% or 0-10%, such as about 10%) of the solvent, and benzyl benzoate can be present in an amount of about 0-50% (e.g., 0-35% or 0-30%, such as about 20%) of the solvent, wherein the balance of the solvent can be any one or more of the pharmaceutically acceptable oil described herein, such as corn oil, castor oil, sesame oil, peanut oil, cottonseed oil, and/or Miglyol 812, etc.

[2] = Toxicokinetics of abiraterone decanoate and abiraterone in 13-week study; type: in vivo, cynomolgus monkeys; details: for AUC(0-t) / Cmax: male, cynomolgus monkey, in vivo, im; for AUC(0-t): Abiraterone Decanoate plasma AUC0-[…] (mean); for Cmax: Abiraterone Decanoate plasma Cmax (mean)
Method: Toxicokinetic parameters were obtained for each animal on Days 1, 29, and 71. […] A single 144-hour sample was collected outside of the allowable window for timed collections from one Animal on Day 29 and the actual time for this time point was used in the toxicokinetic data analysis. Nominal time was used for graphic representation and concentration table generation. For each animal, the following toxicokinetic parameters were determined: maximum observed plasma concentration (Cmax), time of maximum observed plasma concentration (Tmax), and area under the plasma concentration-time curve (AUC).

[3] = cynomolgus monkey, in vivo
Method: Test system/animals: gonadally intact, sexually mature, male cynomolgus monkeys. Administration of Test Materials: The vehicle control and test article were administered once every 2 weeks for 13 weeks (Days 1, 15, 29, 43, 57, and 71) during the study via intramuscular injection. […] The dose levels were 20, 60, or 200 mg/kg/dose and administered at a dose volume of 0.10, 0.15, and 0.25 mL/kg/site, respectively. The control group received the vehicle control in the same manner as the treated groups at a dose volume of 0.25 mL/kg/site.
The vehicle control and test article formulations were administered via bolus intramuscular injection into the epaxial muscles of the lumbar back. Animals at 0 and 200 mg/kg/dose were dosed in 4 dose sites, animals at 20 mg/kg/dose were dosed in 1 dose site, and animals at 60 mg/kg/dose were dosed in 2 dose sites. The needle (23-gauge, ⅝-inch) was inserted perpendicular to the skin surface. The location of the injection site was documented for each dose. In addition, each injection site was marked with a single large dot at the exact site of needle insertion, for purposes of erythema and swelling evaluation. Each injection site was remarked at least once weekly and prior to necropsy.
Individual doses were based on the most recent body weights. Formulations were warmed at 35° C. (±5° C.) for at least 1 hour prior to dosing.
The following parameters and endpoints were evaluated in this study: mortality, clinical signs, body weights, body weight gains, ophthalmology and electrocardiographic examinations, clinical pathology parameters (hematology, coagulation, clinical chemistry, and urinalysis), LH and ACTH analyses, toxicokinetic parameters, gross necropsy findings, organ weights, and histopathologic examinations. Statistical analyses were performed using Group Pair-wise Comparisons (general ANOVA).

For `CCCCCCCCCC(=O)O[C@H]1CC[C@@]2(C)C(=CC[C@@H]3[C@@H]2CC[C@]2(C)C(c4cccnc4)=CC[C@@H]32)C1` [Abiraterone Decanoate, abiraterone decanoate], the abiraterone plasma exposure [1] was “much higher abiraterone plasma exposure”, the “plasma exposures to abiraterone (Cmax and AUC) compared with oral abiraterone acetate toxicology studies” value ([2]; IM administration, cynomolgus monkeys) was “lower than levels achieved in toxicology studies with abiraterone acetate” and the AUC(0-t) ([2]; 20 mg/kg) was 888 ng·h/mL. It also gave an AUC(0-t) ([2]; 60 mg/kg) of 2040 ng·h/mL, an AUC(0-t) ([2]; 200 mg/kg) of 13100 ng·h/mL and a Cmax ([2]; 200 mg/kg) of 66.6 ng/mL. It also gave a Cmax ([2]; cynomolgus, 20 mg/kg) of 6.27 ng/mL, an AUC(0-t) ([2]; cynomolgus, 60 mg/kg) of 2190 ng·h/mL and a Cmax ([2]; cynomolgus, 60 mg/kg) of 15.8 ng/mL. The AUC(0-t) ([2]; cynomolgus, 200 mg/kg) was 12400 ng·h/mL, the Cmax ([2]; cynomolgus, 200 mg/kg) was 71.3 ng/mL and the adrenal gland changes [3] was “minimal to moderate cortical hypertrophy”. The clinical observations [3] was “swelling and/or nodules at the injection sites”, the “findings in the lung” value [3] was “minimal to moderate granulomatous inflammation” and the “ophthalmology findings, qualitative or quantitative ECG parameters” value [3] was “no effect”. For the same molecule, the “test article-related changes in the epididymis” value [3] was “mild to severe reduced luminal sperm and/or minimal to mild increased germ cell debris”, the “test article-related changes in the prostate gland” value [3] was “mild to moderate prostate gland atrophy” and the “test article-related changes in the seminal vesicle” value [3] was “minimal to mild seminal vesicle atrophy”. For the same molecule, the “test article-related changes in the testes” value [3] was “minimal to moderate germ cell depletion and minimal to mild Leydig cell hypertrophy”, the “test article-related changes in the thymus” value [3] was “minimal to mild increased lymphocytes” and the “test article-related findings in the mammary gland” value [3] was “minimal to mild lobular and/or duct hyperplasia”. For the same molecule, the “microscopic findings at terminal necropsy” value ([3]; 20 mg/kg) was “test article-related microscopic findings”, the albumin concentration ([3]; 20 mg/kg/day) was “minimal decreases” and the “microscopic findings at terminal necropsy” value ([3]; 60 mg/kg) was “test article-related microscopic findings”. For the same molecule, the “mean corpuscular volume (MCV) and mean corpuscular hemoglobin (MCH)” value ([3]; 200 mg/kg) was “minimal decreases”, the “red cell distribution width (RDW)” value ([3]; 200 mg/kg) was “minimal increase” and the “highest non-severely toxic dose” value ([3]; male, 13 weeks) was 60 mg/kg/dose.
